These results are taken from ChEMBL document CHEMBL3085644, “Structure elucidation and antimalarial activity of apicidin F: an apicidin-like compound produced by Fusarium fujikuroi” (J Nat Prod, 2013).

SMILES strings stand for the structures. pIC50: −log10 of the molar value. Where a SMILES comes first, the peptide text is derived from it. [ ]: non-standard residue; d: D form. Trp(1-OMe) = COn1cc(C[C@H](N)C(=O)O)c2ccccc21; Asu = N[C@@H](CCCCCC(=O)O)C(=O)O; dPip = O=C(O)[C@H]1CCCCN1

The subject of assay [1] is Plasmodium falciparum. Put plainly: Antiplasmodial activity against chloroquine-resistant Plasmodium falciparum Dd2 assessed as parasite growth inhibition after 48 hrs by light microscopic analysis. The format is functional, organism-based. The conditions noted are these: Dd2, 48 h.
Assay [2] relates to Plasmodium falciparum. Put plainly: Antiplasmodial activity against Plasmodium falciparum NF54 assessed as [3H]-hypoxanthine incorporation after 48 hrs by liquid scintillation counting analysis. The format is functional, organism-based.

As usually defined, the pIC50 is the negative decadic logarithm of the IC50, by convention in mol/L. In the case of `CCC(=O)CCCCC[C@@H]1NC(=O)[C@H]2CCCCN2C(=O)[C@H]([C@@H](C)CC)NC(=O)[C@H](Cc2cn(OC)c3ccccc23)NC1=O` [APICIDIN], the pIC50 in assay [1] is 6.70.

`COn1cc(C[C@@H]2NC(=O)[C@H](CCCCCC(=O)O)NC(=O)[C@H]3CCCCN3C(=O)[C@H](Cc3ccccc3)NC2=O)c2ccccc21` (cyclo([Asu][Trp(1-OMe)]F[dPip])): the pIC50 in assay [2] is 6.17.
